Laboratory results taken from doi:10.1101/2024.08.19.608619, “Discovery of potent SARS-CoV-2 nsp3 macrodomain inhibitors uncovers lack of translation to cellular antiviral response” (bioRxiv, 2024).
“And” between values parts separate entries of the source, which are not always exact repeats. Identical values can stand only once. Like-named read-outs stand apart in the source and are kept apart here.

Tests used:
[1] = test system: SARS-CoV-2, isolate USA-WA1/2020; experiment: microbe, parasite or virus in culture; assay type: cell-based; settings: HeLa-ACE2 SARS-CoV-2 antiviral effect without P-gp inhibitor; for EC50: read-out: ec50; for EC90: read-out: ec90
HeLa-ACE2 cells = settings: for perc_max_measured: highest measured response of the dose series; for perc_min_measured: lowest measured response of the dose series
SARS-CoV-2 = experiment: Antiviral effect in iPSC-derived pneumocyte system; assay type: cell-based; settings: iPSC pneumocytes SARS-CoV-2 antiviral effect; for perc_max_measured: maximum measured response of dose series
MDR1 = experiment: Permeability Papp (AB) MDR1/MDCKII; settings: dog, MDCK-MDR1, papp_a_to_b_mean, In vitro MDR1-MDCKII permeability, A to B, mean
beta2 (h) = molecular target: T1, beta2 (h) (Homo sapiens, UniProt P07550); experiment: In vitro CEREP profiling, beta2 (h) (antagonist radioligand); assay type: binding; settings: test compound 10 uM
T1 construct: purchased Eurofins Cerep (SafetyScreen44), recognised from the panel format
T1 sequence (P07550 whole entry): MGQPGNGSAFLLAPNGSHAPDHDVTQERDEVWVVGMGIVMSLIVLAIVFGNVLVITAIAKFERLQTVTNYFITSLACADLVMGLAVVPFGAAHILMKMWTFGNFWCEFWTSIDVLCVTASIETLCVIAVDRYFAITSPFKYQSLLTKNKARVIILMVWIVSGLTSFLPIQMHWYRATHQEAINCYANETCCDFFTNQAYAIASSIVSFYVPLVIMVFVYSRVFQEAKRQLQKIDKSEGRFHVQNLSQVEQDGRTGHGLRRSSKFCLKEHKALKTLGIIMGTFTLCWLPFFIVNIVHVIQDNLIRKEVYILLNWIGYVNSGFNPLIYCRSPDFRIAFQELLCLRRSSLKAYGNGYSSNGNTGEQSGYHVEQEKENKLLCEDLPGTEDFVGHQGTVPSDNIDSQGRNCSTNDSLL
Excerpt: (§1) Supplement media-1.zip/Safety_Panel_Profile.csv, table | column: perc_inhibition

[2] = In vitro dog hepatocyte stability; assay type: in vitro ADME
Excerpt: (§2) Supplement media-1.zip/Hepatocyte_Stability.csv, table | column: clint; t_half

ETA (h) = molecular target: T2, ETA (h) (Homo sapiens, UniProt P25101); experiment: In vitro CEREP profiling, ETA (h) (agonist radioligand); assay type: binding; settings: test compound 10 uM
T2 construct: purchased Eurofins Cerep (SafetyScreen44), recognised from the panel format
T2 sequence (P25101 21-427): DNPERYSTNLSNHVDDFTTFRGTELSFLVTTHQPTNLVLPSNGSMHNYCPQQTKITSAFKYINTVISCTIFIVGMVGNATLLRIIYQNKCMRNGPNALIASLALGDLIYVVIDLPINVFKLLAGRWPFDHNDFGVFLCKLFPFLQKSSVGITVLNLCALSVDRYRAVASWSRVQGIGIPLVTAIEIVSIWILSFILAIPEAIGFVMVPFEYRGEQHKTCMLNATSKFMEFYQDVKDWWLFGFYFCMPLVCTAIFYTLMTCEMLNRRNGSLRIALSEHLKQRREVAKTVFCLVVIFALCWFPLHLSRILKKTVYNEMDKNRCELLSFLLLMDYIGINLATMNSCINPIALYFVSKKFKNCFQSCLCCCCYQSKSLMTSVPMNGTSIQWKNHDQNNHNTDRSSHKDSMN
Excerpt: as §1

acetylcholinesterase (h) = molecular target: T3, acetylcholinesterase (h) (Homo sapiens, UniProt P22303); experiment: In vitro CEREP profiling, acetylcholinesterase (h); assay type: biochemical; settings: test compound concentration 10 uM; Enzyme and Cell-based assays
T3 construct: purchased Eurofins Cerep (SafetyScreen44), recognised from the panel format
T3 sequence (P22303 32-614): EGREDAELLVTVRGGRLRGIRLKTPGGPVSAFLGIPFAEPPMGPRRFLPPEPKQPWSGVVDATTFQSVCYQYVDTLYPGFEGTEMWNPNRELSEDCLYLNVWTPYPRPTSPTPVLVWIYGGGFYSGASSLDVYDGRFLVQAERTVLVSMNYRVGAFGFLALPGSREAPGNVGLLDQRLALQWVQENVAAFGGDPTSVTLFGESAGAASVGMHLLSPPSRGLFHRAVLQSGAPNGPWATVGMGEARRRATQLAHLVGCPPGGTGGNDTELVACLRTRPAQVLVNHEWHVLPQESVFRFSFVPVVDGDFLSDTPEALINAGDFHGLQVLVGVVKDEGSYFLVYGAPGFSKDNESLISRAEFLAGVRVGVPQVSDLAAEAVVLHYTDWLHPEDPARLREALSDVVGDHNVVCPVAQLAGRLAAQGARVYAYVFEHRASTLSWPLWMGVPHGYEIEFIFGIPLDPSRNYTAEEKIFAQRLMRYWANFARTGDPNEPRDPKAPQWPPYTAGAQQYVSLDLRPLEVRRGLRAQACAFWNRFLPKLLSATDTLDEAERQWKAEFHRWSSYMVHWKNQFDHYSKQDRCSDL
Excerpt: as §1

[3] = In vitro mouse hepatocyte stability; assay type: in vitro ADME
Excerpt: as §2

5-HT transporter (h) = molecular target: T4, 5-HT transporter (h) (Homo sapiens, UniProt P31645); experiment: In vitro CEREP profiling, 5-HT transporter (h) (antagonist radioligand); settings: test compound concentration 10 uM
T4 construct: purchased Eurofins Cerep (SafetyScreen44), recognised from the panel format
T4 sequence (P31645 whole entry): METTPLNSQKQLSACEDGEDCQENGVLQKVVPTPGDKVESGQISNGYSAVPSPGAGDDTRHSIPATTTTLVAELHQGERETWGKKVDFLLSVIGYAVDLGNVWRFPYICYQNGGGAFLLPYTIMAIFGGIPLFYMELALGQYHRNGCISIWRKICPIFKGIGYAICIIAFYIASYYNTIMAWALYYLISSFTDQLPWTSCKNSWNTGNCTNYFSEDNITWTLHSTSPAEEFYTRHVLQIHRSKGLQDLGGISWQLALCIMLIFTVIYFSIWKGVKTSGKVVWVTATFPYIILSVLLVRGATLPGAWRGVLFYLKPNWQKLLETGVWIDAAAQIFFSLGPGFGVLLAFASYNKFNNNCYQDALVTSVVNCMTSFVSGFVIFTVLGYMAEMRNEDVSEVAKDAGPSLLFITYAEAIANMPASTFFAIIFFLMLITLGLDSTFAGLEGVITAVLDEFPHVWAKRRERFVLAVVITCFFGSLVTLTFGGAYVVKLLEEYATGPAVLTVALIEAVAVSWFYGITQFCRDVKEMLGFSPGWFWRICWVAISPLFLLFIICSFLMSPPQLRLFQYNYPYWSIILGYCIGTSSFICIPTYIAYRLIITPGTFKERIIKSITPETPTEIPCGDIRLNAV
Excerpt: as §1

mu (MOP) (h) = molecular target: T5, mu (MOP) (h) (Homo sapiens, UniProt P35372); experiment: In vitro CEREP profiling, mu (MOP) (h) (agonist radioligand); assay type: binding; settings: test compound concentration 10 uM
T5 construct: purchased Eurofins Cerep (SafetyScreen44), recognised from the panel format
T5 sequence (P35372 whole entry): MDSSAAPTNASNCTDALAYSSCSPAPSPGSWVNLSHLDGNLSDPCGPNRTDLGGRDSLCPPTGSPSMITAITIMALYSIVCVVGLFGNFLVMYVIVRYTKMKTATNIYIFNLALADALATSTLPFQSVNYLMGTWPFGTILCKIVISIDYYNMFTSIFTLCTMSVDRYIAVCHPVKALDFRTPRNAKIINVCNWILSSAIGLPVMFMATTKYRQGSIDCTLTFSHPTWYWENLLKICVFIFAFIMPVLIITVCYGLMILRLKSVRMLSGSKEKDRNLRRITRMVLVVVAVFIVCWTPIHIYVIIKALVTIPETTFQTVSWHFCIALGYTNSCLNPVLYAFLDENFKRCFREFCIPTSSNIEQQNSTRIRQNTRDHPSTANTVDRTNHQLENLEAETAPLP
Excerpt: as §1

AR(h) = experiment: In vitro CEREP profiling, AR(h) (agonist radioligand); assay type: binding, human; settings: test compound concentration 10 uM
Excerpt: as §1

H1 (h) = molecular target: T6, H1 (h) (Homo sapiens, UniProt P35367); experiment: In vitro CEREP profiling, H1 (h) (antagonist radioligand); assay type: binding; settings: test compound concentration 10 uM
T6 construct: purchased Eurofins Cerep (SafetyScreen44), recognised from the panel format
T6 sequence (P35367 whole entry): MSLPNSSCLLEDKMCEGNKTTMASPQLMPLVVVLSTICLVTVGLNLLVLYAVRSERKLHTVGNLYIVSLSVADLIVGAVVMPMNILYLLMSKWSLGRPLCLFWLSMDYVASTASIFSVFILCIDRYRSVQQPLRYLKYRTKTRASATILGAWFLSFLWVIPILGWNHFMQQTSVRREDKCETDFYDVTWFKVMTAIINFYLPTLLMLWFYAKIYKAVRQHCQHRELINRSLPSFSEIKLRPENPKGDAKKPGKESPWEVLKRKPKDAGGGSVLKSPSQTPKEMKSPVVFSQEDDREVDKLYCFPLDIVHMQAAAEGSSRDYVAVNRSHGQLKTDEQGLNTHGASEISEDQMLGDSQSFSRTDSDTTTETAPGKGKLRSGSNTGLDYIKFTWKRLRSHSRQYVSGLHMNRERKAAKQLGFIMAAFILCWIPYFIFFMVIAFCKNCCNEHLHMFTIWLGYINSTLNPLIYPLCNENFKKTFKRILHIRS
Excerpt: as §1

[4] = In vitro dog liver microsomal stability; assay type: in vitro ADME
Excerpt: Supplement media-1.zip/Hepatic_Microsomal_Stability.csv, table | column: clint; t_half

alpha1A (h) = molecular target: T7, alpha1A (h) (Homo sapiens, UniProt P35348); experiment: In vitro CEREP profiling, alpha1A (h) (antagonist radioligand); assay type: binding; settings: test compound 10 uM
T7 construct: purchased Eurofins Cerep (SafetyScreen44), recognised from the panel format
T7 sequence (P35348 1-466): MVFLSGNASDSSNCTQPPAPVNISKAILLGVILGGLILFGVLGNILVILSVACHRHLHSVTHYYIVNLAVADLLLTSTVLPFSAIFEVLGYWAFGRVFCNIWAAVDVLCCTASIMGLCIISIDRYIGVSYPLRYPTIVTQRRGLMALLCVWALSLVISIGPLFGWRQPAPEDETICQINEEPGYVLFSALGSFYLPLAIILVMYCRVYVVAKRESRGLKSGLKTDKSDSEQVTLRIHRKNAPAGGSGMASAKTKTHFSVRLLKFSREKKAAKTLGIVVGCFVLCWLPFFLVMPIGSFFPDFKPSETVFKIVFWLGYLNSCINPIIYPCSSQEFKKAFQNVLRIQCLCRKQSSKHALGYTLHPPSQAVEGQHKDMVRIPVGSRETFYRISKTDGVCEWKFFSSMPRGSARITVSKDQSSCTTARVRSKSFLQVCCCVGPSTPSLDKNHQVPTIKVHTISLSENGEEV
Excerpt: as §1

CB1 (h) = molecular target: T8, CB1 (h) (Homo sapiens, UniProt P21554); experiment: In vitro CEREP profiling, CB1 (h) (agonist radioligand); assay type: binding; settings: test compound 10 uM
T8 construct: purchased Eurofins Cerep (SafetyScreen44), recognised from the panel format
T8 sequence (P21554 whole entry): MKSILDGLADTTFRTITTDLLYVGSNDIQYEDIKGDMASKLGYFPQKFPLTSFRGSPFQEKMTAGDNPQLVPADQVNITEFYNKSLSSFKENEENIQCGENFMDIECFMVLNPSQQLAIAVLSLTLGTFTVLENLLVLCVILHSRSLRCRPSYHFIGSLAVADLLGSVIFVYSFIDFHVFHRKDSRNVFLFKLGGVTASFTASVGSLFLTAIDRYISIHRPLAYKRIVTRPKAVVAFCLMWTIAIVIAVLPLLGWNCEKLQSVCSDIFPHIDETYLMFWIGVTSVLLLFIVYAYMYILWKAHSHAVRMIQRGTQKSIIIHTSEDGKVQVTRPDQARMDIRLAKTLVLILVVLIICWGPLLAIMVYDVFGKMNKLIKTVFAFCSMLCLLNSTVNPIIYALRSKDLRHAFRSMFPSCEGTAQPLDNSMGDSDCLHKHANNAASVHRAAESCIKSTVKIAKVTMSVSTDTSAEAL
Excerpt: as §1

5-HT1A (h) = molecular target: T9, 5-HT1A (h) (Homo sapiens, UniProt P08908); experiment: In vitro CEREP profiling, 5-HT1A (h) (agonist radioligand); assay type: binding; settings: test compound concentration 10 uM
T9 construct: purchased Eurofins Cerep (SafetyScreen44), recognised from the panel format
T9 sequence (P08908 1-422): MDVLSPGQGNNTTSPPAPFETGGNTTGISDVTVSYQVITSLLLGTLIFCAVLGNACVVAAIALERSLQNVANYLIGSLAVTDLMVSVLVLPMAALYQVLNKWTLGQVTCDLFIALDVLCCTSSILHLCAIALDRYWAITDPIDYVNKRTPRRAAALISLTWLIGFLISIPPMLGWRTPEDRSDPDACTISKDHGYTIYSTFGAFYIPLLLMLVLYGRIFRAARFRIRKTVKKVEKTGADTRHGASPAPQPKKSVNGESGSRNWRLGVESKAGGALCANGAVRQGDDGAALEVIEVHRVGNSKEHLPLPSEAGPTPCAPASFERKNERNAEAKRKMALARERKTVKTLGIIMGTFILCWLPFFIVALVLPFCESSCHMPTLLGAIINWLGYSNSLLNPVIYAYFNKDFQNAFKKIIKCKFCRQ
Excerpt: as §1

[5] = maximum measured response of dose series
[6] = minimum measured response of dose series
[7] = Severe acute respiratory syndrome coronavirus 2
[8] = protocol HeLa-ACE2 cytotoxicity

Row | SMILES | perc_max_measured [1, 5] | perc_min_measured [1, 6] | EC50 [1] | EC90 [1] | perc_inhibition (% inhibition of the binding of a ligand specific for each target) (beta2 (h)) [%] | clint [2] [uL/min/1E6 cells] | t_half [2] [min] | perc_inhibition (% inhibition of the binding of a ligand specific for each target) (ETA (h)) [%] | perc_inhibition: % inhibition of control enzyme activity, acetylcholinesterase (h) (acetylcholinesterase (h)) [%] | clint [3] [uL/min/1E6 cells] | t_half [3] [min] | perc_inhibition (% inhibition of the binding of a ligand specific for each target) (mu (MOP) (h)) [%] | perc_min_measured ([1]; minimum measured response) [%] | perc_inhibition (% inhibition of the binding of a ligand specific for each target) (AR(h)) [%] | CC50 (HeLa-ACE2 cells; HeLa-ACE2 cytotoxicity) [µM] | cc10 (HeLa-ACE2 cells; HeLa-ACE2 cytotoxicity) [µM] | perc_max_measured (HeLa-ACE2 cells; HeLa-ACE2 cytotoxicity) | perc_min_measured (HeLa-ACE2 cells; HeLa-ACE2 cytotoxicity) | perc_inhibition (% inhibition of the binding of a ligand specific for each target) (H1 (h)) [%] | clint [4] [µL/min/mg] | further results
1 | CC(C)C(Nc1ncnc2[nH]ccc12)c1ccc2c(c1)S(=O)(=O)CCC2 (stereo not drawn) [ASAP-0008327] | 112.988% | 76.031% | – | – | – | – | – | – | – | – | – | – | – | – | – | – | – | – | – | – | EC50 [1, 7]: > 50 µM; EC90 [1, 7]: > 50 µM; cc10 (HeLa-ACE2 cells; [8]): > 50.0 µM; perc_max_measured (HeLa-ACE2 cells; [8]): 104.85%; perc_min_measured (HeLa-ACE2 cells; [8]): 98.585%; EC50 (SARS-CoV-2; Severe acute respiratory syndrome coronavirus 2, iPSC): > 50 µM; EC90 (SARS-CoV-2; [7]): > 50 µM; EC50 (SARS-CoV-2): 29.9 µM; perc_max_measured (SARS-CoV-2): 138.005% and 187.741%; Papp A→B (MDR1): 3.3 ×10⁻⁶ cm/s
2 | CC(C)[C@@H](Nc1ncnc2[nH]c(-c3cnn(C)c3C#N)cc12)c1ccc2c(n1)OCCO2 [ASAP-0008418] | 143.7% and 101.777% | 4.604% and 4.949% | 5.89 µM and 5.04 µM | 6.44 µM and 10.5 µM | – | – | – | – | – | – | – | – | – | – | – | – | – | – | – | – | CC50 (HeLa-ACE2 cells; [8]): > 50 µM; cc10 (HeLa-ACE2 cells; [8]): > 50.0 µM; perc_max_measured (HeLa-ACE2 cells; [8]): 131.128% and 106.847%; perc_min_measured (HeLa-ACE2 cells; [8]): 59.813% and 94.114%; EC50 (SARS-CoV-2): 12.7 µM; EC90 (SARS-CoV-2): 15.6 µM; perc_max_measured (SARS-CoV-2): 116.418%; perc_min_measured (SARS-CoV-2; [6]): 5.314%
3 | CC(C)[C@H](Nc1ncnc2[nH]ccc12)c1ccc2c(c1)S(=O)(=O)CCC2 [ASAP-0008674] | 129.029% | 103.942% | > 20 µM | > 20 µM | -1 | < 3.0 | > 231.0 | -1 | 12 | 567.0 | 1.22 | 8 | 84.767 | 0 | > 20 | > 20.0 | 118.208% and 98.628% | 91.836% and 85.869% | -3 | 14.3 | perc_inhibition: % inhibition of the binding of a ligand specific for each target, 5-HT transporter (h) (antagonist radioligand) (5-HT transporter (h)): 0%; perc_max_measured ([1]; maximum measured response): 158.705%; t_half [4]: 48.5 min; perc_inhibition (% inhibition of the binding of a ligand specific for each target) (alpha1A (h)): -2%; perc_inhibition (% inhibition of the binding of a ligand specific for each target) (CB1 (h)): -13%; perc_inhibition (% inhibition of the binding of a ligand specific for each target) (5-HT1A (h)): 12%
4 | C[C@H](C(=O)O)[C@@H](NC(=O)c1ncnc2[nH]ccc12)c1ccc(Br)cc1 [ASAP-0014722] | 104.611% | 71.809% | > 20 µM | > 20 µM | -8 | < 3.0 | > 231.0 | -2 | 12 | 4.35 | 159.0 | -10 | 91.919 | 12 | > 20 | > 20.0 | 102.029% and 107.127% | 80.657% and 84.357% | -8 | < 5.0 | t_half [4]: > 139.0 min; perc_inhibition (% inhibition of the binding of a ligand specific for each target) (alpha1A (h)): -8%; perc_inhibition (% inhibition of the binding of a ligand specific for each target) (CB1 (h)): -11%; perc_inhibition (% inhibition of the binding of a ligand specific for each target) (5-HT1A (h)): 2%
5 | COc1ccc([C@H](Cc2nnn[nH]2)NC(=O)c2ncnc3[nH]ccc23)cc1 [ASAP-0015381] | 116.588% | 75.952% | > 20 µM | > 20 µM | -6 | < 3.0 | > 231.0 | 2 | 11 | 4.6 | 151.0 | -3 | 88.847 | -2 | > 20 | > 20.0 | 115.218% and 123.48% | 79.698% and 90.022% | -4 | < 5.0 | perc_max_measured ([1]; maximum measured response): 102.013%; t_half [4]: > 139.0 min; perc_inhibition (% inhibition of the binding of a ligand specific for each target) (alpha1A (h)): -7%; perc_inhibition (% inhibition of the binding of a ligand specific for each target) (CB1 (h)): -8%; perc_inhibition (% inhibition of the binding of a ligand specific for each target) (5-HT1A (h)): 5%
